Experiments:
Format in all cases: cell-based
YEM 53 C. krusei = experiment: FEPI MIC with/without 1/8 fluconazole MIC at 24 hrs (Table 11); conditions: YEM 53, 24 hrs, 80% inhibition; for MIC of compound in the presence of fluconazole (+): 1/8 × MIC of fluconazole
[1] = tested on: YEM 15 C. albicans, CDR1CDR2 up; experiment: microbe, parasite or virus in culture; conditions: YEM 15, 24 hrs, 80% inhibition; for MIC of compound in the presence of fluconazole (+): 1/8 × MIC of fluconazole
[2] = tested on: YEM 24 C. albicans ΔCDR1, ΔCDR2; experiment: microbe, parasite or virus in culture; conditions: YEM 24, 24 hrs, 80% inhibition; for MIC of compound in the presence of fluconazole (+): 1/8 × MIC of fluconazole
YEM 51 C. glabrata wt = experiment: FEPI MIC with/without 1/8 fluconazole MIC at 24 hrs (Table 11); conditions: YEM 51, 24 hrs, 80% inhibition; for MIC of compound in the presence of fluconazole (+): 1/8 × MIC of fluconazole
[3] = tested on: YEM 13 C. albicans BEN up; experiment: microbe, parasite or virus in culture; conditions: YEM 13, 24 hrs, 80% inhibition; for MIC of compound in the presence of fluconazole (+): 1/8 × MIC of fluconazole
[4] = tested on: YEM 17 C. glabrata, CgCDR up; conditions: 24 hrs, 80% inhibition; for MIC of compound in the presence of fluconazole (+): 1/8 × MIC of fluconazole
YEM 30 C. albicans wt = experiment: FEPI MIC with/without 1/8 fluconazole MIC at 24 hrs (Table 11); conditions: YEM 30, 24 hrs, 80% inhibition; for MIC of compound in the presence of fluconazole (+): 1/8 × MIC of fluconazole
[5] = tested on: YEM 27 C. albicans ΔCDR1ΔCDR2 ΔBENΔFLU1; experiment: microbe, parasite or virus in culture; conditions: YEM 27, 24 hrs, 80% inhibition; for MIC of compound in the presence of fluconazole (+): 1/8 × MIC of fluconazole
Aspergillus fumigatus = experiment: FEPI MICs in combination with 1/4 the azole's MIC (Table 12); design: FEPI MIC (alone): unit not given here; conditions: for FEPI MIC with fluconazole, 60% Inh / FEPI MIC with fluconazole, 80% Inh: fluconazole 32 μg/ml (1/4 MIC); for FEPI MIC with fluconazole, 60% Inh / FEPI MIC with itraconazole, 60% Inh / FEPI MIC with ketoconazole, 60% Inh: 60% inhibition; for FEPI MIC with fluconazole, 80% Inh / FEPI MIC with itraconazole, 80% Inh / FEPI MIC with ketoconazole, 80% Inh / FEPI MIC (alone): 80% inhibition; for FEPI MIC with itraconazole, 60% Inh / FEPI MIC with itraconazole, 80% Inh: itraconazole 0.063 μg/ml (1/4 MIC); for FEPI MIC with ketoconazole, 60% Inh / FEPI MIC with ketoconazole, 80% Inh: ketoconazole 4 μg/ml (1/4 MIC); for FEPI MIC (alone): no azole, 35° C., CM Broth
Experimental: The combinations were tested against a series of Candida strain with known expression of efflux pumps or with complete deletion of all known pumps and Aspergillus fumigatus. Results are reported as minimum inhibitory concentration (MIC) of […] in the presence or absence of […]. A total of 27 distinct milbemycins were studied.

| Compound | MIC of compound in the presence of fluconazole (+) (YEM 53 C. krusei) | MIC of compound in the absence of fluconazole (−) (YEM 53 C. krusei) | MIC of compound in the presence of fluconazole (+) [1] | MIC of compound in the absence of fluconazole (−) [1] | MIC of compound in the presence of fluconazole (+) [2] | MIC of compound in the absence of fluconazole (−) [2] | MIC of compound in the presence of fluconazole (+) (YEM 51 C. glabrata wt) | MIC of compound in the absence of fluconazole (−) (YEM 51 C. glabrata wt) | MIC of compound in the presence of fluconazole (+) [3] | MIC of compound in the absence of fluconazole (−) [3] | MIC of compound in the presence of fluconazole (+) [4] | MIC of compound in the absence of fluconazole (−) [4] | MIC of compound in the presence of fluconazole (+) (YEM 30 C. albicans wt) | MIC of compound in the absence of fluconazole (−) (YEM 30 C. albicans wt) | MIC of compound in the presence of fluconazole (+) [5] | MIC of compound in the absence of fluconazole (−) [5] | FEPI MIC with fluconazole, 60% Inh (Aspergillus fumigatus) | FEPI MIC with fluconazole, 80% Inh (Aspergillus fumigatus) | FEPI MIC with itraconazole, 60% Inh (Aspergillus fumigatus) | FEPI MIC with itraconazole, 80% Inh (Aspergillus fumigatus) | further results |
| --- | --- | --- | --- | --- | --- | --- | --- | --- | --- | --- | --- | --- | --- | --- | --- | --- | --- | --- | --- | --- | --- |
| CCC(C)C1OC2(CC3CC(CC=C(C)C(OC4CC(OC)C(O)C(C)O4)C(C)C=CC=C4COC5C(O)C(C)=CC(C(=O)O3)C45O)O2)CC(O)C1C (stereo not shown) [Compound 23, Avermectin B2a monoglycoside] | > 64 µg/mL | > 64 µg/mL | 64 µg/mL | > 64 µg/mL | > 64 µg/mL | > 64 µg/mL | > 64 µg/mL | > 64 µg/mL | > 64 µg/mL | > 64 µg/mL | > 64 µg/mL | > 64 µg/mL | ≦0.03 | > 64 µg/mL | > 64 µg/mL | > 64 µg/mL | >64 | >64 | 64 | >64 | FEPI MIC with ketoconazole, 60% Inh (Aspergillus fumigatus): ≦0.063; FEPI MIC with ketoconazole, 80% Inh (Aspergillus fumigatus): 8; FEPI MIC (alone) (Aspergillus fumigatus): >64 |
| C/C1=C\C[C@@H]2C[C@@H](C[C@]3(CC[C@H](C)[C@@H](C)O3)O2)OC(=O)[C@@H]2C=C(COC(=O)C(C)C)[C@@H](O)[C@H]3OC/C(=C\C=C\[C@H](C)C1)[C@]32O [Compound 20, 4a-O-isobutyryl milbemycin α1] | 4 µg/mL | > 64 µg/mL | ≦0.03 | > 64 µg/mL | > 64 µg/mL | > 64 µg/mL | 2 µg/mL | > 64 µg/mL | 64 µg/mL | > 64 µg/mL | 4 µg/mL | > 64 µg/mL | ≦0.06 | > 64 µg/mL | 64 µg/mL | > 64 µg/mL | 2 | 4 | 0.25 | 8 | FEPI MIC with ketoconazole, 60% Inh (Aspergillus fumigatus): ≦0.063; FEPI MIC with ketoconazole, 80% Inh (Aspergillus fumigatus): ≦0.063; FEPI MIC (alone) (Aspergillus fumigatus): 64 |
| LL-F2849ζ (nemedectinζ) [Compound 17] | > 64 µg/mL | > 64 µg/mL | ≦0.03 | > 64 µg/mL | > 64 µg/mL | > 64 µg/mL | 0.5 µg/mL | > 64 µg/mL | > 64 µg/mL | > 64 µg/mL | 2 µg/mL | > 64 µg/mL | ≦0.03 | > 64 µg/mL | 64 µg/mL | > 64 µg/mL | 64 | 64 | 16 | >64 | FEPI MIC with ketoconazole, 60% Inh (Aspergillus fumigatus): 4; FEPI MIC with ketoconazole, 80% Inh (Aspergillus fumigatus): 4; FEPI MIC (alone) (Aspergillus fumigatus): >64 |
| CCC(C)C1OC2(CC3CC(CC=C(C)C(O)C(C)C=CC=C4COC5C(O)C(C)=CC(C(=O)O3)C45O)O2)CC(O)C1C (stereo not drawn) [Compound 14, Avermectin β2a aglycone] | > 64 µg/mL | > 64 µg/mL | 2 µg/mL | > 64 µg/mL | > 64 µg/mL | > 64 µg/mL | 16 µg/mL | > 64 µg/mL | > 64 µg/mL | > 64 µg/mL | 16 µg/mL | > 64 µg/mL | 4 µg/mL | > 64 µg/mL | > 64 µg/mL | > 64 µg/mL | 64 | >64 | >64 | >64 | FEPI MIC with ketoconazole, 60% Inh (Aspergillus fumigatus): 2; FEPI MIC with ketoconazole, 80% Inh (Aspergillus fumigatus): 16; FEPI MIC (alone) (Aspergillus fumigatus): >64 |
| C/C1=C\C[C@@H]2C[C@@H](C[C@]3(CC[C@H](C)[C@@H](C)O3)O2)OC(=O)[C@@H]2C=C(COC(=O)Cc3ccccc3)[C@@H](O)[C@H]3OC/C(=C\C=C\[C@H](C)C1)[C@]32O [Compound 25, 4a-O-phenylacetyl milbemycin α1] | 0.06 µg/mL | > 64 µg/mL | ≦0.03 | > 64 µg/mL | > 64 µg/mL | > 64 µg/mL | 4 µg/mL | > 64 µg/mL | > 64 µg/mL | > 64 µg/mL | 2 µg/mL | > 64 µg/mL | ≦0.03 | > 64 µg/mL | > 64 µg/mL | > 64 µg/mL | 1 | 2 | 0.5 | >64 | FEPI MIC with ketoconazole, 60% Inh (Aspergillus fumigatus): ≦0.063; FEPI MIC with ketoconazole, 80% Inh (Aspergillus fumigatus): 0.25; FEPI MIC (alone) (Aspergillus fumigatus): >64 |

Source: patent publication US6495591B1, “Fungal efflux pump inhibitors” (Essential Therapeutics, Inc., priority 1997, dated 2002)
